Patent publication US10160743B2, “Sulphamoylthiophenamide derivatives and the use thereof as medicaments for the treatment of hepatitis B” (Janssen Sciences Ireland UC, priority 2013, dated 2018)

What was measured:
HBV [1] = test: Anti-HBV activity, HepG2.2.15 cell line, HBV DNA from secreted virions by realtime PCR; assay type: cell-based, Hepatitis B virus; settings: HepG2.2.15 cells, 6 days of treatment
HBV [2] = test: Anti-HBV activity, HepG2.117 cell line (Tet-off), intracellular HBV DNA by realtime PCR; assay type: cell-based, Hepatitis B virus; settings: HepG2.117 cells, 3 days of treatment
[3] = Cytotoxicity in HepG2 cells, Resazurin assay; assay type: cell-based; settings: human, incubated for 4 days, Resazurin viability
[4] = Hepatitis B virus, HepG2.2.15, 144 h
[5] = Hepatitis B virus, HepG2.117, 72 h

SMILES | EC50 (HBV [1]; [4]) | EC50 (HBV [2]; [5]) | CC50 at 4 days [3] | EC50 (HBV [1]) | EC50 (HBV [2])
Cc1sc(S(=O)(=O)N[C@H](C)C(F)(F)F)cc1C(=O)Nc1cc(F)c(F)c(Cl)c1 [Compound 36, N-(3-Chloro-4,5-difluorophenyl)-2-methyl-5-{[(1R)-2,2,2-trifluoro-1-methylethyl]sulfamoyl}thiophene-3-carboxamide] | 140 nM | 160 nM | 7100 nM | – | –
Cc1sc(S(=O)(=O)NC2(C)COC2)cc1C(=O)Nc1ccc(F)c(Cl)c1 [Compound 28, N-(3-Chloro-4-fluorophenyl)-2-methyl-5-[(3-methyloxetan-3-yl)-sulfamoyl]thiophene-3-carboxamide] | 34 nM | 41 nM | > 25000 nM | – | –
Cc1sc(S(=O)(=O)NC(C)(C)C)cc1C(=O)Nc1cc(F)c(F)c(Cl)c1 [Compound 20, 5-(tert-Butylsulfamoyl)-N-(3-chloro-4,5-difluorophenyl)-2-methylthiophene-3-carboxamide] | 170 nM | 110 nM | 15900 nM | – | –
Cc1cc(NC(=O)c2cc(S(=O)(=O)NC3(C(F)(F)F)CC3)sc2C)ccc1F [Compound 35, N-(4-Fluoro-3-methylphenyl)-2-methyl-5-{[1-(trifluoromethyl)cyclo-propyl]sulfamoyl}thiophene-3-carboxamide] | 60 nM | 40 nM | > 25000 nM | – | –
Cc1cc(NC(=O)c2cc(S(=O)(=O)N[C@H]3CCOC3)cs2)ccc1F [Compound 8, N-(4-fluoro-3-methyl-phenyl)-4-[[(3S)-tetrahydrofuran-3-yl]sulfamoyl]thiophene-2-carboxamide] | 100 nM | 160 nM | > 25000 nM | – | –
Cc1sc(S(=O)(=O)NC(CF)CF)cc1C(=O)Nc1ccc(F)c(C#N)c1 [Compound 43, N-(3-cyano-4-fluoro-phenyl)-5-[[2-fluoro-1-(fluoromethyl)ethyl]sulfamoyl]-2-methyl-thiophene-3-carboxamide] | 330 nM | 670 nM | > 25000 nM | – | –
Cc1cc(NC(=O)c2cc(S(=O)(=O)N[C@H]3CCOC3)sc2C2CC2)ccc1F [Compound 6, 2-cyclopropyl-N-(4-fluoro-3-methyl-phenyl)-5-[[(3S)-tetrahydrofuran-3-yl]sulfamoyl]thiophene-3-carboxamide] | 580 nM | 680 nM | > 25000 nM | – | –
Cc1sc(S(=O)(=O)NC(C)(C)C(F)(F)F)cc1C(=O)Nc1ccc(F)c(C#N)c1 [Compound 45, N-(3-cyano-4-fluoro-phenyl)-2-methyl-5-[(2,2,2-trifluoro-1,1-dimethyl-ethyl)sulfamoyl]thiophene-3-carboxamide] | 280 nM | 420 nM | > 25000 nM | – | –
Cc1sc(S(=O)(=O)NC(C)(C)C)cc1C(=O)Nc1ccc(F)c(Br)c1 [Compound 27, N-(3-Bromo-4-fluorophenyl)-5-(tert-butylsulfamoyl)-2-methylthiophene-3-carboxamide] | 130 nM | 90 nM | 12200 nM | – | –
Cc1sc(S(=O)(=O)NC2(C(F)(F)F)CCOC2)cc1C(=O)Nc1ccc(F)c(F)c1 (centres unmarked) [Compound 49, N-(3,4-difluorophenyl)-2-methyl-5-[[3-(trifluoromethyl)tetrahydrofuran-3-yl]sulfamoyl]thiophene-3-carboxamide] | 290 nM | 270 nM | > 25000 nM | – | –
Cc1cc(NC(=O)c2cc(S(=O)(=O)NC3(C)COC3)sc2C)ccc1F [Compound 15, N-(4-fluoro-3-methyl-phenyl)-2-methyl-5-[(3-methyloxetan-3-yl)-sulfamoyl]thiophene-3-carboxamide] | 27 nM | 160 nM | > 25000 nM | – | –
Cc1sc(S(=O)(=O)NC2(C(F)(F)F)CC2)cc1C(=O)Nc1ccc(F)c(F)c1 [Compound 34, N-(3,4-Difluorophenyl)-2-methyl-5-{[1-(trifluoromethyl)cyclopropyl]-sulfamoyl}thiophene-3-carboxamide] | 100 nM | 130 nM | 17700 nM | – | –
Cc1sc(S(=O)(=O)N[C@@H](C)C(C)(F)F)cc1C(=O)Nc1ccc(F)c(F)c1 [Compound 47, 5-[[(1S)-2,2-difluoro-1-methyl-propyl]sulfamoyl]-N-(3,4-difluorophenyl)-2-methyl-thiophene-3-carboxamide] | 160 nM | 340 nM | 14300 nM | – | –
Cc1cc(NC(=O)c2cc(S(=O)(=O)NC(C)(C)C)sc2C)cc(F)c1F [Compound 23, 5-(tert-Butylsulfamoyl)-N-(3,4-difluoro-5-methylphenyl)-2-methylthiophene-3-carboxamide] | 110 nM | 32 nM | 18100 nM | – | –
Cc1cc(NC(=O)c2cc(S(=O)(=O)NC3(C)CCOC3)sc2C)ccc1F (racemic) [Compound 16, N-(4-fluoro-3-methyl-phenyl)-2-methyl-5-[(3-methyltetrahydrofuran-3-yl)sulfamoyl]thiophene-3-carboxamide] | – | – | > 25000 nM | 54 nM | 48 nM
Cc1cc(NC(=O)c2cc(S(=O)(=O)N[C@H]3CCOC3)sc2Br)ccc1F [Compound 2, 2-bromo-N-(4-fluoro-3-methyl-phenyl)-5-[[(3S)-tetrahydrofuran-3-yl]-sulfamoyl]thiophene-3-carboxamide] | 810 nM | 1900 nM | > 25000 nM | – | –
Cc1sc(S(=O)(=O)N[C@H](C)C(F)(F)F)cc1C(=O)Nc1ccc(F)c(C#N)c1 [Compound 51, N-(3-cyano-4-fluoro-phenyl)-2-methyl-5-[[(1R)-2,2,2-trifluoro-1-methyl-ethyl]sulfamoyl]thiophene-3-carboxamide] | 250 nM | 170 nM | > 25000 nM | – | –
Cc1sc(S(=O)(=O)NC2(C)COC2)cc1C(=O)Nc1cccc(C(F)(F)F)c1 [Compound 22, 2-methyl-5-[(3-methyloxetan-3-yl)sulfamoyl]-N-[3-(trifluoromethyl)-phenyl]thiophene-3-carboxamide] | 250 nM | 230 nM | > 25000 nM | – | –
COC(=O)C(C)(C)NS(=O)(=O)c1cc(C(=O)Nc2ccc(F)c(F)c2)c(C)s1 [Compound 30, Methyl N-({4-[(3,4-difluorophenyl)carbamoyl]-5-methylthiophen-2-yl}sulfonyl)-2-methylalaninate] | > 1000 nM | 790 nM | > 25000 nM | – | –
Cc1sc(S(=O)(=O)NC(C)(C)C(F)(F)F)cc1C(=O)Nc1cc(F)c(F)c(Cl)c1 [Compound 40, N-(3-chloro-4,5-difluoro-phenyl)-2-methyl-5-[(2,2,2-trifluoro-1,1-dimethyl-ethyl)sulfamoyl]thiophene-3-carboxamide] | – | 500 nM | > 25000 nM | – | –
Cc1sc(S(=O)(=O)NC2(C(F)(F)F)CCOC2)cc1C(=O)Nc1cccc(C(F)(F)F)c1 (racemic) [Compound 41, 2-methyl-N-[3-(trifluoromethyl)phenyl]-5-[[3-(trifluoromethyl)tetrahydrofuran-3-yl]sulfamoyl]thiophene-3-carboxamide] | 550 nM | > 1000 nM | > 25000 nM | – | –
Cc1cc(NC(=O)c2csc(S(=O)(=O)N[C@H]3CCOC3)c2)ccc1F [Compound 1, N-(4-fluoro-3-methyl-phenyl)-5-[[(3S)-tetrahydrofuran-3-yl]sulfamoyl]thiophene-3-carboxamide] | 170 nM | 320 nM | > 25000 nM | – | –
